Experimental data from patent US20200330655A1, “DELIVERY OF NITRIC OXIDE-RELEASING PHOSPHOLIPIDS, LIPOSOMES, AND HIGH DENSITY LIPOPROTEIN-LIKE NANOPARTICLES (HDL NPS) BY DRUG ELUTING STENTS AND INTRA-ARTERIAL INJECTION” (Northwestern University, priority 2016, published 2020).

Columns and labels:
[1] = SNO DPPTE exposure to light and/or room temperature; assay type: physicochemical; conditions: FIG. 17
[2] = test system: porcine coronary injury model; conditions: drug eluting stent loaded with the NO donor; cited from earlier work

| stability on exposure to light and/or room temperature [1] | Substance | neointimal hyperplasia and restenosis [2] |
| --- | --- | --- |
| forms disulfide bonds | S-nitrosylated 1,2-dipalmitoyl-sn-glycero-3-phosphothioethanol [SNO DPPTE] |  |
|  | nitroprus side | did not reduce |
